Structures can show the parent of a compound that is named as a salt.
How the values were obtained:
IKKe = IKKe (Homo sapiens (Human), UniProt Q14164); test: IKKe Biochemical Assay
Description: IKKe Biochemical Assay Test compounds were transferred into Labcyte polypropylene 384 well plates ([…]-25) and diluted to 3 mM using DMSO. 3 mM test compounds were dispensed using Labcyte ECHO dose response module into Greiner 784075 plates (columns 3-12 and 13-22, 10 point 1:4) so that high concentration was 30 uM final. 100 uM of a reference compound (1 uM final high concentration). Backfilling was performed if necessary so that all wells contain 1% DMSO final: add 75 nl DMSO/well into columns 1, 2 and 24 using Labcyte Echo. add 75 nl 1.0 mM staurosporine/well into column 23 using Labcyte Echo (10 uM final) add 4.5 ul enzyme/well using multidrop dispenser add 3 ul substrate/well using multidrop dispenser incubate at 25° C. for 90 min. add 7.5 ul 2× stop buffer read on labchip ez reader II using IKKε. job Raw data files were opened in the Caliper LabChip Reviewer program (Version 3.0.265.0 SP2) and peak assignments were adjusted to reflect “substrate first” with the software's post-run analysis options. A spline-fit baseline was applied using the software's analysis algorithm.

TBK1 = TBK1 (Homo sapiens (Human), UniProt Q9UHD2); test: TBK Biochemical Assay
Description: Example 106: TBK Biochemical Assay Test compounds were transferred into Labcyte polypropylene 384 well plates ([…]-25) and diluted to 3 mM using DMSO. 3 mM test compounds were dispensed using Labcyte ECHO dose response module into Greiner 784075 plates (columns 3-12 and 13-22, 10 point 1:4) so that high concentration was 30 uM final. 100 uM of a reference compound (1 uM final high concentration). Backfilling was performed if necessary so that all wells contain 1% DMSO final: add 75 nl DMSO/well into columns 1, 2 and 24 using Labcyte Echo. add 75 nl 1.0 mM staurosporine/well into column 23 using Labcyte Echo (10 uM final) add 4.5 ul enzyme/well using multidrop dispenser add 3 ul substrate/well using multidrop dispenser incubate at 25° C. in Heidolph incubator for 90 min. add 7.5 ul 2× stop buffer using multidrop dispenser read on labchip ez reader II using TBK1.job Raw data files were opened in the Caliper LabChip Reviewer program (Version 3.0.265.0 SP2) and peak assignments were adjusted to reflect “substrate first” with the software's post-run analysis options. A spline-fit baseline was applied using the software's analysis algorithm.

Chain of TBK1 (Q9UHD2 whole entry, species assumed): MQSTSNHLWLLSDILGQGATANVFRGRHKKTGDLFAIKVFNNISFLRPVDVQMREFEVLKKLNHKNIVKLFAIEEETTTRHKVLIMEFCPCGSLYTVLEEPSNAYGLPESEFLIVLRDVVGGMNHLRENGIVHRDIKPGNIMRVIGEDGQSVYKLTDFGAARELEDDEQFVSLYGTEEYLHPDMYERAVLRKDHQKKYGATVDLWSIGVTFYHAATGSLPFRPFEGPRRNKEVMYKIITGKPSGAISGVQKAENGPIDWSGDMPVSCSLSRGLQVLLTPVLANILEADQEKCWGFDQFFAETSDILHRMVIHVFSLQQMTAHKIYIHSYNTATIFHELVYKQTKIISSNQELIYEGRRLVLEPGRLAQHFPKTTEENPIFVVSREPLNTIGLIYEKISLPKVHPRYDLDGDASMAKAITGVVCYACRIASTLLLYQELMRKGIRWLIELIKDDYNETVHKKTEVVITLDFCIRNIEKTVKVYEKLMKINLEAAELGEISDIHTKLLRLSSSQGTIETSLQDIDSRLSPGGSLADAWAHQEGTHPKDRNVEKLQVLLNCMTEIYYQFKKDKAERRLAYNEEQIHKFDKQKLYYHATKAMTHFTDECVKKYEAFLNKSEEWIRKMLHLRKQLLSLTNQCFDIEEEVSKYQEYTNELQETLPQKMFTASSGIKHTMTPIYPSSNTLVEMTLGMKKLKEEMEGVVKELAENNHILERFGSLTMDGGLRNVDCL
Chain of IKKe (Q14164 whole entry, species assumed): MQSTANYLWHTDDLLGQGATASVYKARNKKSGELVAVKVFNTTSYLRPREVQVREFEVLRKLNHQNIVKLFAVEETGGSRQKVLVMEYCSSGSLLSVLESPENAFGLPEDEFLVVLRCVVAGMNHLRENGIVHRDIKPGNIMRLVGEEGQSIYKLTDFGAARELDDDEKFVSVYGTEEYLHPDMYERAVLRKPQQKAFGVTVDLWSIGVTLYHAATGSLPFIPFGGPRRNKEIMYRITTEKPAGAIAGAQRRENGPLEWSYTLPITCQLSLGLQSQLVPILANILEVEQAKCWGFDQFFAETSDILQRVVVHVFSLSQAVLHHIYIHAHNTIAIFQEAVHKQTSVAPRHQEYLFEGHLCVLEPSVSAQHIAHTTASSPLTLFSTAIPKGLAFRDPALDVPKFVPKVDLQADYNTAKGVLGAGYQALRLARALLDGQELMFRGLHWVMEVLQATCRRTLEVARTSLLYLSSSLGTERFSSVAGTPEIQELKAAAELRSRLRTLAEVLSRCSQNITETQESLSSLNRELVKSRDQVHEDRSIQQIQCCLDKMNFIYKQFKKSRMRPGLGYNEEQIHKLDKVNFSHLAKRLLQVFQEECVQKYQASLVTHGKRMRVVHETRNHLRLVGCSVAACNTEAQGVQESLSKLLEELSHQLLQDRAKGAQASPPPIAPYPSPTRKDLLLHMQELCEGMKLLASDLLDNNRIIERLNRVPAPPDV

Compound | IC50 (IKKe) | IC50 (TBK1)
COc1nc(Nc2cc(-c3ccc(OC4CCOCC4)c(C#N)c3)ncn2)ccc1C(=O)N(C)C [Example 1, 6-([6-[3-cyano-4-(oxan-4-yloxy)phenyl]pyrimidin-4-yl]amino)-2-methoxy-N,N-dimethylpyridine-3-carboxamide] | < 100 nM | < 100 nM
COc1nc(Nc2cc(-c3ccc(OC4CCOCC4)c(C#N)c3)ncn2)ccc1C(=O)N(C)CCO [Example 2, 6-([6-[3-cyano-4-(oxan-4-yloxy)phenyl]pyrimidin-4-yl]amino)-N-(2-hydroxyethyl)-2-methoxy-N-methylpyridine-3-carboxamide] | < 100 nM | < 100 nM
COc1nc(Nc2cc(-c3ccc(OC4CCOCC4)c(C#N)c3)ncn2)ccc1C(=O)N1CC2CC(C1)O2 [Example 3, 5-(6-[[6-methoxy-5-([6-oxa-3-azabicyclo[3.1.1]heptan-3-yl]carbonyl)pyridin-2-yl]amino]pyrimidin-4-yl)-2-(oxan-4-yloxy)benzonitrile] | < 100 nM | < 100 nM
COc1nc(Nc2cc(-c3ccc(OC4CCOCC4)c(C#N)c3)ncn2)ccc1C(=O)NC1C2COCC21 (stereo not shown) [Example 4, 6-([6-[3-cyano-4-(oxan-4-yloxy)phenyl]pyrimidin-4-yl]amino)-2-methoxy-N-[3-oxabicyclo[3.1.0]hexan-6-yl]pyridine-3-carboxamide] | < 100 nM | < 100 nM
COc1nc(Nc2cc(-c3ccc(OC4CCOCC4)c(C#N)c3)ncn2)ccc1C(=O)N1CC2CCC(C1)O2 [Example 5, 5-(6-((5-(8-oxa-3-azabicyclo[3.2.1]octane-3-carbonyl)-6-methoxypyridin-2-yl)amino)pyrimidin-4-yl)-2-((tetrahydro-2H-pyran-4-yl)oxy)benzonitrile] | < 100 nM | < 100 nM
COc1nc(Nc2cc(-c3ccc(OC4CCOCC4)c(C#N)c3)ncn2)ccc1C(=O)N1CC2COCC2C1 (stereo not shown) [Example 6, 5-(6-[[5-([hexahydro-1H-furo[3,4-c]pyrrol-5-yl]carbonyl)-6-methoxypyridin-2-yl]amino]pyrimidin-4-yl)-2-(oxan-4-yloxy)benzonitrile] | < 100 nM | < 100 nM
COc1nc(Nc2cc(-c3ccc(OC4CCOCC4)c(C#N)c3)ncn2)ccc1C(=O)NC1CCN(C)CC1 [Example 7, 6-([6-[3-cyano-4-(oxan-4-yloxy)phenyl]pyrimidin-4-yl]amino)-2-methoxy-N-(1-methylpiperidin-4-yl)pyridine-3-carboxamide hydrochloride] | < 100 nM | < 100 nM
COc1nc(Nc2cc(-c3ccc(OC4CCOCC4)c(C#N)n3)ncn2)ccc1C(=O)N(C)C [Example 8, 6-([6-[6-cyano-5-(oxan-4-yloxy)pyridin-2-yl]pyrimidin-4-yl]amino)-2-methoxy-N,N-dimethylpyridine-3-carboxamide] | 1000 to 5000 nM | 1000 to 5000 nM
COc1nc(Nc2cc(-c3cnc(OC4CCOCC4)c(C#N)c3)ncn2)ccc1C(=O)N(C)C [Example 9, 6-([6-[5-cyano-6-(oxan-4-yloxy)pyridin-3-yl]pyrimidin-4-yl]amino)-2-methoxy-N,N-dimethylpyridine-3-carboxamide hydrochloride] | < 100 nM | < 100 nM
COc1nc(Nc2cc(-c3ccc(OC4CCOCC4)c(C#N)c3)ncn2)ccc1N1CCS(=O)(=O)CC1 [Example 10, 5-(6-[[5-(1,1-dioxo-1λ,4-thiomorpholin-4-yl)-6-methoxypyridin-2-yl]amino]pyrimidin-4-yl)-2-(oxan-4-yloxy)benzonitrile] | < 100 nM | < 100 nM
COc1nc(Nc2cc(-c3ccc(OC4CCOCC4)c(C#N)c3)ncn2)ccc1N(C)CCN(C)C [Example 11, 5-[6-[(5-[[2-(dimethylamino)ethyl](methyl)amino]-6-methoxypyridin-2-yl)amino]pyrimidin-4-yl]-2-(oxan-4-yloxy)benzonitrile] | < 100 nM | < 100 nM
COc1nc(Nc2cc(-c3ccc(OC4CCOCC4)c(C#N)c3)ncn2)ccc1N1CCN(C)CC1 [Example 12, 5-(6-[[6-methoxy-5-(4-methylpiperazin-1-yl)pyridin-2-yl]amino]pyrimidin-4-yl)-2-(oxan-4-yloxy)benzonitrile] | < 100 nM | < 100 nM
COc1nc(Nc2cc(-c3ccc(OC4CCOCC4)c(C#N)c3)ncn2)ccc1N(C)CC(=O)N(C)C [Example 13, 2-[[6-([6-[3-cyano-4-(oxan-4-yloxy)phenyl]pyrimidin-4-yl]amino)-2-methoxypyridin-3-yl](methyl)amino]-N,N-dimethylacetamide] | < 100 nM | < 100 nM
COc1nc(Nc2cc(-c3ccc(OC4CCOCC4)c(C#N)c3)ncn2)ccc1N1CCN(CC(F)F)CC1 [Example 14, 5-[6-([5-[4-(2,2-difluoroethyl)piperazin-1-yl]-6-methoxypyridin-2-yl]amino)pyrimidin-4-yl]-2-(oxan-4-yloxy)benzonitrile] | < 100 nM | < 100 nM
COc1nc(Nc2cc(-c3ccc(OC4CCOCC4)c(C#N)c3)ncn2)ccc1N1C[C@@H](C)O[C@@H](C)C1 [Example 15, 5-[6-([5-[(2R,6S)-2,6-dimethylmorpholin-4-yl]-6-methoxypyridin-2-yl]amino)pyrimidin-4-yl]-2-(oxan-4-yloxy)benzonitrile] | < 100 nM | < 100 nM
COc1nc(Nc2cc(-c3ccc(OC4CCOCC4)c(C#N)c3)ncn2)ccc1N1C[C@@H](C)N(C2COC2)[C@@H](C)C1 [Example 16, 5-[6-([5-[(3R,5S)-3,5-dimethyl-4-(oxetan-3-yl)piperazin-1-yl]-6-methoxypyridin-2-yl]amino)pyrimidin-4-yl]-2-(oxan-4-yloxy)benzonitrile] | < 100 nM | < 100 nM
COc1nc(Nc2cc(-c3ccc(OC4CCOCC4)c(C#N)c3)ncn2)ccc1C1CCNCC1 [Example 17, 5-(6-[[6-methoxy-5-(piperidin-4-yl)pyridin-2-yl]amino]pyrimidin-4-yl)-2-(oxan-4-yloxy)benzonitrile] | < 100 nM | < 100 nM
COc1nc(Nc2cc(-c3ccc(OC4CCOCC4)c(C#N)c3)ncn2)ccc1C1CCN(C)CC1 [Example 18, 5-(6-[[6-methoxy-5-(1-methylpiperidin-4-yl)pyridin-2-yl]amino]pyrimidin-4-yl)-2-(oxan-4-yloxy)benzonitrile] | < 100 nM | < 100 nM
COc1nc(Nc2cc(-c3ccc(OC4CCOCC4)c(C#N)c3)ncn2)ccc1CNC1CCN(C)CC1 [Example 19, 5-[6-[(6-methoxy-5-[[(1-methylpiperidin-4-yl)amino]methyl]pyridin-2-yl)amino]pyrimidin-4-yl]-2-(oxan-4-yloxy)benzonitrile] | < 100 nM | < 100 nM
COc1nc(Nc2cc(-c3ccc(OC4CCOCC4)c(C#N)c3)ncn2)ccc1C1CCN(C)C1 (stereo not shown) [Example 20, 5-(6-[[6-methoxy-5-(1-methylpyrrolidin-3-yl)pyridin-2-yl]amino]pyrimidin-4-yl)-2-(oxan-4-yloxy)benzonitrile] | < 100 nM | < 100 nM
COc1nc(Nc2cc(-c3cc(C#N)c(OC4CCOCC4)cn3)ncn2)ccc1N1CCN(C)CC1 [Example 21, 2-(6-[[6-methoxy-5-(4-methylpiperazin-1-yl)pyridin-2-yl]amino]pyrimidin-4-yl)-5-(oxan-4-yloxy)pyridine-4-carbonitrile] | < 100 nM | < 100 nM
COc1nc(Nc2cc(-c3ccc(OC4CCOCC4)c(C#N)n3)ncn2)ccc1N1CCN(C)CC1 [Example 22, 6-(6-[[6-methoxy-5-(4-methylpiperazin-1-yl)pyridin-2-yl]amino]pyrimidin-4-yl)-3-(oxan-4-yloxy)pyridine-2-carbonitrile] | 100 to 1000 nM | 100 to 1000 nM
COc1nc(Nc2cc(-c3cnc(OC4CCOCC4)c(C#N)c3)ncn2)ccc1N1CCN(C)CC1 [Example 23, 5-(6-[[6-methoxy-5-(4-methylpiperazin-1-yl)pyridin-2-yl]amino]pyrimidin-4-yl)-2-(oxan-4-yloxy)pyridine-3-carbonitrile] | < 100 nM | < 100 nM
COc1nc(Nc2cc(-c3cc(C#N)c(OC4CCOCC4)cn3)ncn2)ccc1C1CCN(C)CC1 [Example 24, 2-(6-[[6-methoxy-5-(1-methylpiperidin-4-yl)pyridin-2-yl]amino]pyrimidin-4-yl)-5-(oxan-4-yloxy)pyridine-4-carbonitrile] | < 100 nM | < 100 nM
COc1nc(Nc2cc(-c3ccc(O[C@@H]4CCN(C(=O)CO)CC4(F)F)c(C#N)c3)ncn2)ccc1N1CCN(C)CC1 [Example 61, 2-[[(4R)-3,3-difluoro-1-(2-hydroxyacetyl)piperidin-4-yl]oxy]-5-(6-[[6-methoxy-5-(4-methylpiperazin-1-yl)pyridin-2-yl]amino]pyrimidin-4-yl)benzonitrile] | – | < 100 nM
